This note sets out measurements from patent US11278567B2, “Methods of modifying neuronal function by changing intracellular magnesium levels” (Neurocentria, Inc., priority 2016, dated 2022).

Holding throughout (format): cell-based, Sprague-Dawley rats
Assay [1] concerns hippocampal CA3-CA1 pyramidal neurons. Description: Mitochondrial status assessment (JC-1 membrane potential, mitochondrial density). The procedure: The neurons were cultured on 1 #coverslips (8 mm×8 mm) for 14-28 days in vitro (div) before use. [Mg^2+]o in culture medium was adjusted to different concentrations according to experimental designs.
For FIG. 7A, mitochondria were marked with 40 nM Mitoview633 (Biotium) for 15 min and then washed out in blank medium for 15 min, both at 37° C. For FIG. 6A, the membrane potential-sensitive fluorescent dye JC-1 (1 μM) (Invitrogen) was used. JC-1 was incubated for 15 min followed by a 15 min washout at 37° C. Fluorescent images were taken on FV300 confocal. Mitochondrial membrane potential (ΔΨ) of each mitochondrion was estimated by the ratio of fluorescence of aggregate versus monomer form of JC-1, i.e. Faggr/Fmono. JC-1 was excited by 488 nm laser and the emission spectra were collected at 510-575 nm and >575 nm at the same time separately. Then the ratio of fluorescence at >575 nm versus at 510-575 nm (Faggr/Fmono) was calculated for each individual mitochondrial punctum to represent the ΔΨ of that mitochondrion. To estimate the valid range of Faggr/Fmono, Faggr/Fmono of individual mitochondria was measured before and after administering 5 μM Carbonyl cyanide 4-(trifluoromethoxy)phenylhydrazone (FCCP) 5 min at the same AOI. […] Faggr/Fmono was calculated for each individual meaningful punctum and the mean value of population was calculated from all the puncta to represent the general ΔΨ in this AOI. 3-5 AOIs were measured for each coverslip and the mean of the AOIs were calculated to represent the average ΔΨ of the coverslip. For each bar or point in FIG. 6, several coverslips were used (described in legends). The density of mitochondria (Nmito) was also quantified by counting the number of JC-1-aggregate(+) fluorescent puncta (FIG. 6) or MitoView633(+) puncta (FIG. 7) per area of branches.

Assay [2] has the same test system. As to the kind of experiment: Functional terminal density (N5AP): FM dye vesicle turnover under 5AP bursts. To be noted: for N5AP after blockade of axonal transport: 0.5 mM. The procedure: (§1) High-density primary cultures of hippocampal CA3-CA1 pyramidal neurons of neonatal Sprague-Dawley rats (<24 hr) were used in the current study, as described before (Slutsky et al., Neuron. 2004; 44(5):835-49). The neurons were cultured on 1 #coverslips (8 mm×8 mm) for 14-28 days in vitro (div) before use. [Mg^2+]o in culture medium was adjusted to different concentrations according to experimental designs. In each experiment, sister cultures from the same batch were always used for treatment and control conditions on the same day, and the experimental results were repeated using several different batches.
Vesicle turnover in response to bursting action potentials (see below) is a measure of the functional status of a presynaptic terminal. FM dyes were used to visualize the vesicle turnover of presynaptic terminals. In the current study, 10 μM FM1-43 or 20 μM FM4-64 (Biotium) was loaded under different patterns of field stimulations, such as 5AP bursts (5 action potentials (Aps) at 100 Hz for each burst, 6 bursts (30 APs totally) with 10 s inter burst interval were given) and “maximal stimulation” (600 APs at 10 Hz). Releasable fluorescence in the AOI (ΔF) was obtained from the difference of loading (F1) and unloading (F2) images, i.e. ΔF=F1−F2 (see FIG. 1A). For FIG. 3C, the loading/unloading procedures were performed under 5AP bursts and 600AP stimulation at the same area of network successively. Subsequently, the ΔF5AP and ΔF600AP images were registered to colocalize the vesicle turnover for these two stimulating protocols for individual terminals.
The functional terminal density (N5AP) at a dendritic branch was defined as the number of 5AP bursting stimulation induced FM(+) puncta (#FM5AP) per unit area of dendritic branch (A), N5AP=#FM5AP/A. […] immunofluorescence (IF) staining of MAP2 (as described below), which specifically presents in dendritic skeleton, was used to label dendritic area and A was calculated from MAP2(+) area. To limit the error of A introduced by the immunoreactivity of MAP2(+), the staining and imaging parameters were rigorously controlled in different batches of IF and the grey-scale histograms of MAP2(+) images were equalized before measuring A. Here, to ensure the equalized MAP2(+) marked area could reflect the real morphology of dendrites, the parameters of histogram equalization were set based on the comparison of MAP2(+) and DIC images. For most experiments, the average N5AP of an AOI was calculated from the total number of FM(+) puncta divided by total MAP2(+) area to reduce the sampling error. Then the mean N5AP of all AOIs (1-5 AOIs/coverslip) was used to represent the average N5AP in a coverslip; for each statistical data point, several coverslips were used and the mean±standard error of the mean (SEM) of all coverslips was represented (see figure legends). For FIGS. 3B and D, the FM(+) puncta density induced by 600AP stimulation was also calculated and presented in the same way as described above. Exceptionally, for FIG. 2B, each point represented the N5AP at a single segment of dendritic branch. In general, in an AOI (59 μm×59 μm, with varying dendritic density) 351-1598 presynaptic functional terminals could be detected by FM dyes for different experimental groups under 5AP bursting stimulation.

The test system is the same in assay [3]. Description: Intracellular Mg2+ measurement with Magnesium Green-AM (MgGrn). The following applies: for [Mg2+]i after blockade of axonal transport: 0.5 mM. The procedure:
as §1
The mature cultures were incubated in Tyrode's solution with 2 μM Magnesium Green™-AM (MgGrn, an intracellular Mg^2+ indicator, Invitrogen) for 30 min and washed out for 20 min; both at 37° C. Fluorescent images of several AOIs in each coverslip were taken on FV300 at RT. In the current study, the MgGrn fluorescence at basal condition (without eliciting any AP stimulus) (FIG. 1A) was measured to eliminate any effects caused by AP-induced intracellular Ca^2+ fluctuations. Since the intracellular Ca^2+ concentration ([Ca^2+]i) at basal condition was usually <100 nM, the contribution of Ca^2+ to MgGrn fluorescence was very small. Thus, the fluorescent intensity of MgGrn could be considered proportional to [Mg^2+]i. Since the measured MgGrn fluorescence was also dependent on the local volume of branches in network, a physical model was built to describe this phenomenon and the calculating formula that corrected the effect of varying local volumes was derived.
In the experiments, given a randomly selected AOI of dendritic area (the image was obtained as described above), 50-100 branches were randomly selected from each AOI and the mean intensity of fluorescence (i.e. F(z)max) of each branch was measured. Meanwhile, the diameter of each branch (d) was measured from the DIC image, then the F(z)max/d was calculated to represent the [Mg^2+]i in the branch. The mean value of these 50-100 branches was calculated to represent the level of [Mg^2+]i in the AOI. […]

For assay [4] the test system is unchanged. As to the kind of experiment: In vitro immunofluorescence quantification of presynaptic proteins in terminals. The procedure: as §1
The neurons were fixed in 1×PBS (pH 7.4) containing 1% Paraformaldehyde (E.M.S.), 0.01% Glutaraldehyde (Alfa Aesar) and 4% Sucrose (Amresco) for 1 hr RT. […]
For FIG. 3B, the average density of immunoreactive puncta of a given AOI was calculated from the total puncta number divided by the total MAP2(+) area; the values from several AOIs were averaged to represent the average puncta density in a coverslip; for each data bar, the mean±SEM of these coverslips were presented. […] For FIGS. 5C and 5D, the mean fluorescence intensity per pixel in each cell body was measured (the somatic area of each cell body was measured from DIC image) and then the mean±SEM of all the cell bodies were presented. […]

For assay [5] the test system is unchanged. As to the kind of experiment: Probability of transmitter release (Pr) in individual boutons, FM dye. To be noted: [Mg2+]o elevated from 0.8 to 1.2 mM for four hours; single action potential input. The method, then: FIGS. 25Aa to 25B. Intracellular Mg^2+ is a negative regulator of Pr. (FIG. 25Aa-25Ac) Inverse relationship between Pr and intracellular Mg^2+ concentration ([Mg^2+]i) in individual boutons. For individual terminals, the higher the [Mg^2+]i, the lower the Pr. (FIG. 25Aa) [Mg^2+]i and Pr in individual boutons were determined by Magnesium Green (MgGrn) and FM4-64, respectively. (FIG. 25Ab) Pr was negatively associated with [Mg^2+]i in individual boutons in a synaptic network. (FIG. 25Ac) Pr was linearly correlated with 1/[Mg^2+]i. […] Extracellular Mg^2+ concentration ([Mg^2+]o) was elevated from 0.8 to 1.2 mM for four hours to increase [Mg^2+]i.
FIGS. 26A and 26B. (FIG. 26A) Representative DIC and FM1-43 images comparing presynaptic responses to single (“1AP”: 30AP0.5 Hz) and bursting (“5AP”: 6 groups of 5 APs at 100 Hz, ISI 10 sec) stimulus at low (0.8 mM) and high (1.2 mM) [Mg^2+]o. (FIG. 26B) Quantitative analysis of images from FIG. 26A. ***p<0.001. For methods see Slutsky et al, 2004, and Example 1. 2AP and 3AP refer to 6 groups of 2 APs at 100 Hz or 3 APs at 100 Hz, respectively.

[6] abbreviates: elevating Mg2+ level for long term (>48 hr).

Values joined by “and” are separate entries in the source; they are usually repeats but may differ in a detail not shown here. Equal entries are not always repeated. “Also recorded” adds a separate entry of the source.

Take `N#CC(C#N)=NNc1ccc(OC(F)(F)F)cc1` [FCCP, Carbonyl cyanide 4-(trifluoromethoxy)phenylhydrazone, reference compound]: the “mean Faggr/Fmono of all mitochondria (JC-1, ΔΨ)” value in assay [1] (5 μM, 5 min, from 1.21±0.02 before) is recorded as 0.26±0.002.
With `COc1cc2c(c(OC)c1OC)-c1ccc(OC)c(=O)cc1[C@@H](NC(C)=O)CC2` [Colchicine], the entries for the “N5AP after blockade of axonal transport” value in assay [2] (at the high [Mg2+]o condition) and in assay [2] (while increasing [Mg2+]o) were “remarkable reduction” and “prevented the increase”, respectively. The “[Mg2+]i after blockade of axonal transport” value is on record as “without change” in assay [3] (at the high [Mg2+]o condition) and “did not prevent elevation” in assay [3] (while increasing [Mg2+]o). Besides, in assay [4] (0.5 mM, as a function of blocking time, low and high [Mg2+]o), the “concentration of presynaptic proteins in terminals” value is listed as “decrease; also recorded: decreased linearly”.
For the compound `[Mg+2]` [Mg^2+], the “terminals functional in response to 5AP bursts (of 600AP-releasable terminals)” value in assay [2] ([Mg2+]o elevated from 0.8 to 1.2 mM for 4 hr) was 90.6±2.9% and ~90%. The “increase in mitochondrial membrane potential (ΔΨ)” value in assay [1] (elevating Mg2+ for 4 hr) is around 39%. Moreover, the “increase in general mitochondrial function (Nmito×ΔΨ)” value in assay [1] (elevating Mg2+ level for 4 hr) is ~68% and 67.8±12.4%; in assay [1] (setting [6]) it was 56.2±6.5%. The “increase in mitochondrial density (Nmito) in distal branches” value in assay [1] (elevating Mg2+ level for 4 hr) is ~20% and 19.4±2.9%; in assay [1] (setting [6]), 19.6±2.1%. Besides, the “increase in expression of Ca2+ sensor (SYT1) and coupling proteins in terminals” value in assay [4] (high [Mg2+]o (1.2 4 hr) vs Ctrl 0.8) is given as 30-44%. For the same compound, in assay [5], the “probability of release (Pr)” value is “reduced”.
Consider `CN(C)CCCN1c2ccccc2CCc2ccccc21` [Imipramine], for which the “functional terminal density (N5AP)” value in assay [2] (1 μM for 4 hr added to Ctrl ([Mg2+]o 0.8 mM), 5AP bursts) is listed as “increased”. The “persistence of N5AP enhancement” value in assay [2] (after 1 μM for 4 hr) is around 32 h. Further, the “[Mg2+]i (MgGrn fluorescence)” value in assay [3] (1 μM for 4 hr) is “elevation”.
